Measurements from patent US20130309380A1, “METHODS FOR PRESERVING FRESH PRODUCE” (NatureSeal, Inc., priority 2003, published 2013).

Experiments:
Bramley apples [1] = test: Water released by sliced Bramley apples
Procedure: (§1) The firmness of the produce in Example 11a were evaluated by bending produce samples. Appearance was evaluated by visual inspection. The moisture was evaluated by measuring the amount of water the produce released.
(§2) Whole Bramley apples free from blemishes or bruises, were rinsed with water, sanitized with a sodium hypochlorite solution having 100 parts per million available chlorine, for two minutes, then peeled, cored, and sliced. The sliced apples were dipped into a fresh produce preservative solution that contained 5.12% strontium ascorbate; the fresh produce preservative solution contained 4.12% ascorbic acid and 1.79% […], for about 30 to 60 seconds. The apples were then drained in a colander for one minute. The apple slices and the colander were placed in 500 micron plastic bags from SunSet Packaging, stored at 4° C. and evaluated several times over a 15 day period. Water which collected in the plastic bag was removed and weighed.
For comparison, similarly prepared apple slices were placed in one of several solutions that contained either: 4.3% ascorbic acid and 1.13% hydrated MgCO3, specifically 4MgCO3.Mg(OH)25H2O or a 5.0% w/w aqueous solution of calcium ascorbate dihydrate, having a pH of 7.2; or a 5.3% w/w solution, of 4.12% ascorbic acid and 1.17% calcium carbonate,; or 6% ascorbic acid having a pH of 2.3; or 48 g ascorbic acid, 48 g citric acid, 16 g CaCl2 and 48 g NaCl in 800 g water, with a pH of 1.2; or 6% w/w citric acid and 6% w/w ascorbic acid; or 4.64% sodium ascorbate having 4.13% ascorbic acid and 1.18% NaCo3. […]

Bramley apples [2] = test: Evaluation of sliced Bramley apples: appearance by visual inspection, firmness by bending
Procedure: as §1, §2
For comparison, similarly prepared apple slices were placed in one of several solutions that contained either: 4.3% ascorbic acid and 1.13% hydrated MgCO3, specifically 4MgCO3.Mg(OH)25H2O or a 5.0% w/w aqueous solution of calcium ascorbate dihydrate, having a pH of 7.2; or a 5.3% w/w solution, of 4.12% ascorbic acid and 1.17% calcium carbonate,; or 6% ascorbic acid having a pH of 2.3; or 48 g ascorbic acid, 48 g citric acid, 16 g CaCl2 and 48 g NaCl in 800 g water, with a pH of 1.2; or 6% w/w citric acid and 6% w/w ascorbic acid; or 4.64% sodium ascorbate having 4.13% ascorbic acid and 1.18% NaCo3.
Bramley apples were preserved with the fresh produce preservative as in Example 11a except that the preservative solution contained lithium ascorbate. The lithium ascorbate solution was prepared by adding 7.35 grams of lithium carbonate and 35 grams ascorbic acid to 800 grams water.
For comparison, apple slices were placed in one of several comparative solutions: a 5.0% w/w aqueous solution of calcium ascorbate dihydrate containing 42.5 grams of calcium ascorbate dihydrate and 800 grams water with a pH of 7; a 5.3% w/w solution of calcium ascorbate containing 44.94 grams of mixture of 9.95 grams calcium carbonate and 35 grams ascorbic acid in 800 grams water with a pH of 5.5; a comparative solution, containing 48 g ascorbic acid, 48 g citric acid, 16 g CaCl2, 48 g NaCl and 800 g water with a pH of 1.2; a comparative solution of sodium ascorbate containing 28.45 grams of sodium carbonate 35 grams ascorbic acid, 800 grams water having a pH of 6.8; a comparative solution of calcium ascorbate containing 8.75 grams of calcium carbonate, 35 grams ascorbic acid, and to 800 grams water; a comparative solution of calcium ascorbate containing 9.95 grams of calcium carbonate, 35 grams ascorbic acid, and 765 grams water; a comparative solution of magnesium ascorbate containing 9.66 grams of hydrated magnesium carbonate 4MgCO3.Mg(OH)25H2O, 35 grams ascorbic acid, 765 grams water, having a pH of 6.4; and a comparative solution of zinc ascorbate containing 35 grams ascorbic acid, 12.74 grams zinc carbonate and 765 grams water, with a pH of 5.5. The apple slices were evaluated on day five.

| Compound | Water Released (Bramley apples [1]; 4 hr at 4° C.) [g] | Water Released (Bramley apples [1]; 28 hr at 4° C.) [g] | Water Released (Bramley apples [1]; 52 hr at 4° C.) [g] | Water Released (Bramley apples [1]; 94 hr at 4° C.) [g] | Water Released (Bramley apples [1]; 191 hr at 4° C.) [g] | Water Released (Bramley apples [1]; 335 hr at 4° C.) [g] | Texture (Bramley apples [2]; 4 hr at 4° C.) | Texture (Bramley apples [2]; 28 hr at 4° C.) | Texture (Bramley apples [2]; 52 hr at 4° C.) | Texture (Bramley apples [2]; 94 hr at 4° C.) | Texture (Bramley apples [2]; 191 hr at 4° C.) | Appearance (visual inspection) (Bramley apples [2]; 335 hr at 4° C.) | Color (Bramley apples [2]; Day 5) | Texture (Bramley apples [2]; Day 5) | Texture (Bramley apples [2]; 335 hr at 4° C.) |
| --- | --- | --- | --- | --- | --- | --- | --- | --- | --- | --- | --- | --- | --- | --- | --- |
| O=C1O[C@H]([C@@H](O)CO)C([O-])=C1O.[Na+] [Sodium Ascorbate, sodium ascorbate] | 6.58 | 6.74 | 6.67 | 4.87 | 4.08 | 3.77 | Firm | Firm | Firm | Firm | Firm | Internal browning on some | White | Firm | – |
| calcium ascorbate dihydrate | 6.84 | 5.88 | 5.56 | 4.00 | 2.67 | 1.33 | – | Firm | Firm | Firm | Firm | Good condition | White | Very Firm | Firm |
| magnesium ascorbate | 6.54 | 7.07 | 6.43 | 4.75 | 3.73 | 2.17 | – | Firm | Firm | Firm | Firm | Good color | White | Very Firm | Firm and crisp |
| zinc ascorbate | – | – | – | – | – | – | – | – | – | – | – | – | Brown | Very Soft | – |
